The record followed here is PubChem BioAssay AID256 (DTP/NCI, 2004).

Values joined by “and” are separate entries in the source; they are usually repeats but may differ in a detail not shown here. Equal values may be shown once. Toxic doses and inconclusive results are not listed.

The subject of the experiment is CD2F1 mice, L1210 leukemia ip, survival T/C. The experiment can be described thus: NCI In Vivo Anticancer Drug Screen. Data for tumor model L1210 Leukemia (intraperitoneal) in CD2F1 (CDF1) mice. To be noted: higher = longer survival. In a few lines: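 Mice carrying a transplanted tumor received test compound or vehicle alone. The value is the measurement in the treated group divided by that in the vehicle-treated control group.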

Where [1] appears, read: endpoint: mean survival time, dose: 100.0 mg/kg/injection, schedule: Q04DX003 (ip), vehicle: saline with Tween-80.
Where [2] appears, read: endpoint: mean survival time, dose: 200.0 mg/kg/injection, schedule: Q04DX003 (ip), vehicle: saline with Tween-80.
Setting [3] is: endpoint: mean survival time, dose: 400.0 mg/kg/injection, schedule: Q04DX003 (ip), vehicle: saline with Tween-80.
Setting [4] is: endpoint: mean survival time, dose: 50.0 mg/kg/injection, schedule: Q01DX009 (ip), vehicle: Klucel (hydroxypropylcellulose) (HPC).
[5] abbreviates: endpoint: mean survival time, dose: 100.0 mg/kg/injection, schedule: Q01DX009 (ip), vehicle: Klucel (hydroxypropylcellulose) (HPC).
The mark [6] stands for this setting: endpoint: mean survival time, dose: 200.0 mg/kg/injection, schedule: Q01DX009 (ip), vehicle: Klucel (hydroxypropylcellulose) (HPC).
[7] abbreviates: endpoint: mean survival time, dose: 50.0 mg/kg/injection, schedule: Q01DX009 (ip), vehicle: saline with Tween-80.
Setting [8] is: endpoint: mean survival time, dose: 50.0 mg/kg/injection, schedule: Q01DX009 (ip), vehicle: other.
Setting [9] is: endpoint: mean survival time, dose: 100.0 mg/kg/injection, schedule: Q01DX009 (ip), vehicle: other.
Setting [10] is: endpoint: mean survival time, dose: 200.0 mg/kg/injection, schedule: Q01DX009 (ip), vehicle: other.
[11] abbreviates: endpoint: mean survival time, dose: 100.0 mg/kg/injection, schedule: Q01DX009 (ip), vehicle: saline with Tween-80.
Where [12] appears, read: endpoint: mean survival time, dose: 100.0 mg/kg/injection, schedule: Q01DX001 (ip), vehicle: saline with Tween-80.
[13] abbreviates: endpoint: mean survival time, dose: 200.0 mg/kg/injection, schedule: Q01DX001 (ip), vehicle: saline with Tween-80.
Where [14] appears, read: endpoint: mean survival time, dose: 200.0 mg/kg/injection, schedule: Q01DX009 (ip), vehicle: saline with Tween-80.
The mark [15] stands for this setting: endpoint: mean survival time, dose: 400.0 mg/kg/injection, schedule: Q01DX009 (ip), vehicle: saline with Tween-80.

Consider `CCCNC(=O)Nc1ccc(C(=O)OCC(C)C)cc1`, for which the T/C reads like this: (endpoint: mean survival time, dose: 100.0 mg/kg/injection, schedule: Q04DX003 (ip), vehicle: saline) 93 % of control; (endpoint: mean survival time, dose: 200.0 mg/kg/injection, schedule: Q04DX003 (ip), vehicle: saline) 95 % of control; (endpoint: mean survival time, dose: 400.0 mg/kg/injection, schedule: Q04DX003 (ip), vehicle: saline) 104 % of control.

In the case of `CCC(=O)N(N=O)c1ccccc1`, the T/C (endpoint: mean survival time, dose: 4.7 mg/kg/injection, schedule: Q04DX003 (ip), vehicle: saline) was 102 % of control; the T/C (endpoint: mean survival time, dose: 9.4 mg/kg/injection, schedule: Q04DX003 (ip), vehicle: saline) was 107 % of control; the T/C (endpoint: mean survival time, dose: 18.8 mg/kg/injection, schedule: Q04DX003 (ip), vehicle: saline) is 102 % of control.

For the compound `O[Si](c1ccccc1)(c1ccccc1)c1ccccc1`, the T/C reads like this: under setting [1], 102 % of control; under setting [2], 97 % of control; under setting [3], 92 % of control.

Consider `C[Si](C)(C)OSc1ccccc1[N+](=O)[O-]`, for which the T/C is, setting by setting: (endpoint: mean survival time, dose: 12.5 mg/kg/injection, schedule: Q01DX009 (ip), vehicle: Klucel (hydroxypropylcellulose) (HPC)) 95 % of control; (endpoint: mean survival time, dose: 25.0 mg/kg/injection, schedule: Q01DX009 (ip), vehicle: Klucel (hydroxypropylcellulose) (HPC)) 97 % of control; under setting [4], 100 % of control; under setting [5], 93 % of control; under setting [6], 92 % of control; (endpoint: mean survival time, dose: 400.0 mg/kg/injection, schedule: Q01DX009 (ip), vehicle: Klucel (hydroxypropylcellulose) (HPC)) 91 % of control.

Consider `O=C(CN1CC1)NCCCCCCCNC(=O)CN1CC1`, for which the T/C was 158 % of control (endpoint: mean survival time, dose: 14.6 mg/kg/injection, schedule: Q01DX001 (ip), vehicle: carboxymethylcellulose (CMC)) and 150 % of control (endpoint: mean survival time, dose: 50.0 mg/kg/injection, schedule: Q01DX001 (ip), vehicle: carboxymethylcellulose (CMC)).

For the compound `O=C1OCC2C1Cc1cc(O)c(O)cc1C2c1ccc(O)c(O)c1` (stereo unspecified), the T/C was 96 % of control under setting [4], 101 % of control under setting [5] and 104 % of control under setting [6].

Take `N#CCC(N)=S`: the T/C (endpoint: mean survival time, dose: 12.5 mg/kg/injection, schedule: Q01DX009 (ip), vehicle: saline with Tween-80) is 112 % of control; the T/C (endpoint: mean survival time, dose: 25.0 mg/kg/injection, schedule: Q01DX009 (ip), vehicle: saline with Tween-80) was 106 % of control; the T/C under setting [7] was 96 % of control.

As for `COc1ccc2c(c1[N+](=O)[O-])CCCCC2=O`, the T/C is 100 % of control under setting [8], 92 % of control under setting [9] and 100 % of control under setting [10].

For the compound `COc1cc2cc(c1Cl)N(C)C(=O)CC(OC(=O)C(C)N(C)C(=O)C(C)C)C1(C)OC1C(C)C1CC(O)(NC(=O)O1)C(OC)/C=C/C=C(C)C2` (stereo unspecified), the T/C was 109 % of control (endpoint: mean survival time, dose: 1.2 micrograms/kg/injection, schedule: Q01DX009 (ip), vehicle: saline + alcohol); 113 % of control (endpoint: mean survival time, dose: 2.5 micrograms/kg/injection, schedule: Q01DX009 (ip), vehicle: saline + alcohol); 116 % of control (endpoint: mean survival time, dose: 5.0 micrograms/kg/injection, schedule: Q01DX009 (ip), vehicle: saline + alcohol); 119 % of control (endpoint: mean survival time, dose: 10.0 micrograms/kg/injection, schedule: Q01DX009 (ip), vehicle: saline + alcohol).

On to `C=CC(=O)NC(C)(C)CC(C)(C)C`, for which the T/C runs as follows: under setting [11], 105 % of control; under setting [1], 92 % of control; under setting [2], 102 % of control; under setting [3], 96 % of control.

For `O=Cc1ccc(O)c(Cl)c1`, the T/C was 96 % of control under setting [12]; 104 % of control under setting [13]; 93 % of control (endpoint: mean survival time, dose: 400.0 mg/kg/injection, schedule: Q01DX001 (ip), vehicle: saline with Tween-80).

As for `O=C(O)c1ccc(SSc2ccc(C(=O)O)cn2)nc1`, the T/C (endpoint: mean survival time, dose: 100.0 mg/kg/injection, schedule: Q01DX009 (ip), vehicle: saline) is 102 % of control; the T/C (endpoint: mean survival time, dose: 200.0 mg/kg/injection, schedule: Q01DX009 (ip), vehicle: saline) was 96 % of control; the T/C (endpoint: mean survival time, dose: 400.0 mg/kg/injection, schedule: Q01DX009 (ip), vehicle: saline) is 94 % of control.

For `COc1c2c(c(OC)c3c1C(=O)c1ccccc1C3=O)CC=CC2`, the T/C reads like this: (endpoint: mean survival time, dose: 12.5 mg/kg/injection, schedule: Q01DX009 (ip), vehicle: other) 105 % of control; (endpoint: mean survival time, dose: 25.0 mg/kg/injection, schedule: Q01DX009 (ip), vehicle: other) 100 % of control; (endpoint: mean survival time, dose: 44.0 mg/kg/injection, schedule: Q01DX009 (ip), vehicle: other) 92 % of control; under setting [8], 96 % of control; (endpoint: mean survival time, dose: 66.0 mg/kg/injection, schedule: Q01DX009 (ip), vehicle: other) 90 % of control; under setting [9], 121 % of control and 90 % of control. Moreover, the T/C under setting [10] is 105 % of control.

In the case of `Cc1cccc(N=Cc2ccccc2O)c1`, the T/C is 88 % of control under setting [12] and 97 % of control under setting [13].

Take `CC(=O)OC(OC(C)=O)c1ccc([N+](=O)[O-])cc1`: the T/C under setting [11] is 103 % of control; the T/C under setting [1] was 105 % of control; the T/C under setting [14] is 97 % of control; the T/C under setting [2] was 100 % of control; the T/C under setting [15] is 97 % of control; the T/C under setting [3] is 92 % of control.

On to `O=C1CCc2ccccc21` (tested in a mixture with another compound), for which the T/C runs as follows: (endpoint: mean survival time, dose: 50.0 mg/kg/injection, schedule: Q04DX002 (ip), vehicle: saline with Tween-80) 96 % of control; (endpoint: mean survival time, dose: 100.0 mg/kg/injection, schedule: Q04DX002 (ip), vehicle: saline with Tween-80) 101 % of control; (endpoint: mean survival time, dose: 200.0 mg/kg/injection, schedule: Q04DX002 (ip), vehicle: saline with Tween-80) 96 % of control.

On to `CC/C=C(CC)\C(=C\CC)CC`, for which the T/C under setting [7] is 100 % of control, the T/C under setting [11] is 100 % of control and the T/C under setting [14] was 107 % of control.

Consider `C[CH2][Sn](/[CH]=C/C=C/OC)([CH2]C)[CH2]C`, for which the T/C reads like this: (endpoint: mean survival time, dose: 0.04 mg/kg/injection, schedule: Q01DX009 (ip), vehicle: saline) 101 % of control; (endpoint: mean survival time, dose: 0.09 mg/kg/injection, schedule: Q01DX009 (ip), vehicle: saline) 101 % of control.

For the compound `Cc1cccc(-c2cc(Cl)c3cc(S(=O)(=O)F)ccc3n2)c1`, the T/C runs as follows: under setting [11], 94 % of control; under setting [1], 104 % of control; under setting [14], 93 % of control; under setting [2], 101 % of control; under setting [15], 100 % of control; under setting [3], 92 % of control.

In the case of `COC(=O)CCN(C(=O)c1ccccc1)c1ccccc1C(=O)OC`, the T/C runs as follows: (endpoint: mean survival time, dose: 75.0 mg/kg/injection, schedule: Q04DX003 (ip), vehicle: saline) 100 % of control; (endpoint: mean survival time, dose: 150.0 mg/kg/injection, schedule: Q04DX003 (ip), vehicle: saline) 94 % of control; (endpoint: mean survival time, dose: 300.0 mg/kg/injection, schedule: Q04DX003 (ip), vehicle: saline) 100 % of control.

As for `Cc1ccc(NC(=O)/C=C/C(=O)O)cc1C`, the T/C under setting [7] is 95 % of control, the T/C under setting [11] was 101 % of control and the T/C under setting [14] was 105 % of control.

Regarding `O=c1[nH]c(=S)c(SCc2ccccc2)nn1C1OC(COP(=O)(O)O)C(O)C1O` (stereo unspecified), the T/C runs as follows: (endpoint: median survival time, dose: 5.63 mg/kg/injection, schedule: Q01DX005 (ip), vehicle: water) 98 % of control; (endpoint: median survival time, dose: 11.25 mg/kg/injection, schedule: Q01DX005 (ip), vehicle: water) 98 % of control; (endpoint: median survival time, dose: 22.5 mg/kg/injection, schedule: Q01DX005 (ip), vehicle: water) 102 % of control; (endpoint: median survival time, dose: 45.0 mg/kg/injection, schedule: Q01DX005 (ip), vehicle: water) 105 % of control; (endpoint: median survival time, dose: 90.0 mg/kg/injection, schedule: Q01DX005 (ip), vehicle: water) 103 % of control.

With `c1ccc2c(c1)C1c3ccccc3C2c2ccccc21`, the T/C was 95 % of control under setting [1], 100 % of control under setting [2] and 94 % of control under setting [3].

For `[Cl][Pt+2][Cl].[NH-]c1cccc(F)c1.[NH-]c1cccc(F)c1`, the T/C is, setting by setting: (endpoint: mean survival time, dose: 12.5 mg/kg/injection, schedule: Q04DX003 (ip), vehicle: saline with Tween-80) 97 % of control; (endpoint: mean survival time, dose: 25.0 mg/kg/injection, schedule: Q04DX003 (ip), vehicle: saline with Tween-80) 114 % of control; (endpoint: mean survival time, dose: 50.0 mg/kg/injection, schedule: Q04DX003 (ip), vehicle: saline with Tween-80) 102 % of control.
